pIC50: −log10 of the molar value.

Test [1] deals with Aurora-B (Homo sapiens, UniProt Q96GD4). Put plainly: Aurora-B enzyme assay (identical protocol as Aurora-A). It counts as biochemical. The settings on record: IC50 range class; read-out: Inhibitor Activity vs Aurora-B. As to the method: The ability of compounds to inhibit Aurora-A activity was measured using a simple microplate assay for Aurora-A activity, also suitable for high-throughput screening. In brief, γ-^33P-ATP and Aurora-A were incubated in a myelin basic protein (MBP)-coated Flashplate® to generate a scintillation signal. The plates were formatted to contain the inhibitor, controls, positive control (staurosporin) and blanks. After incubation at 37° C. for 1 hour and a subsequent wash procedure, the plates were read on a TopCount-NXT™.
Sequence of Aurora-B (Q96GD4 whole entry): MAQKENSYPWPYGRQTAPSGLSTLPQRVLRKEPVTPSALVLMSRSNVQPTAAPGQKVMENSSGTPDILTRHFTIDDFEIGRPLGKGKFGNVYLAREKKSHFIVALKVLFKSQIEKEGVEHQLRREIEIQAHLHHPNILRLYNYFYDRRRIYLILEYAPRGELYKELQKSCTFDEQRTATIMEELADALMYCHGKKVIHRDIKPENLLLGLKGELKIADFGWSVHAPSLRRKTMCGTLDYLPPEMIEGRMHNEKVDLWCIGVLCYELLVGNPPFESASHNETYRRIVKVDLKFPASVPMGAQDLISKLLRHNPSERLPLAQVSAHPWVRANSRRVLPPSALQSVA
IC50 values were determined by non-linear regression analysis, after fitting the data point results to the equation for sigmoidal dose response with variable slope (% activity against log concentration of compound), using Graphpad Prism software.
The Aurora-B enzyme assay follows the identical protocol as Aurora-A.

For test [2], the system named is HUT cell line. In words: Cell inhibition assay (SRB cell viability), HUT. The format is cell-based. The conditions noted are these: IC50 range class, 72 h, read-out: Inhibitor Activity vs HUT cell line. As to the method:
(§1) The corresponding cancer cell lines (U937, HCT 116 and HUT) growing in log phase were harvested and seeded at 1000 cells/well (200 ul final volume) into 96-well tissue culture plates. Following 24 h of cell growth cells were treated with compounds (final concentration of 20 uM). Plates were then re-incubated for a further 72 h before a sulphorhodamine B (SRB) cell viability assay was conducted according to Skehan 1990 J Natl Canc Inst 82, 1107-1112.
(§2) Data were expressed as a percentage inhibition of the control, measured in the absence of inhibitor, as follows: — % inhibition=100−((S^i/S^o)×100) where S^i is the signal in the presence of inhibitor and S^o is the signal in the presence of DMSO.
(§3) IC50 values were determined by non-linear regression analysis, after fitting the results of eight data points to the equation for sigmoidal dose response with variable slope (% activity against log concentration of compound), using Graphpad Prism software.

Test [3] relates to HCT 116 cell line. In words: Cell inhibition assay (SRB cell viability), HCT 116. It counts as cell-based. The settings on record: Homo sapiens, IC50 range class, 72 h, read-out: Inhibitor Activity vs HCT 116 cell line. As to the method:
as §1, §2, §3

Test [4] has as its system U937 cell line. Put plainly: Cell inhibition assay (SRB cell viability), U937. The format is cell-based. The settings on record: Homo sapiens, U-937, IC50 range class, 72 h, read-out: Inhibitor Activity vs U937 cell line. The procedure: as §1, §2, §3

On to `COc1cc2c(Nc3cnn(CC(=O)Nc4ccccc4)c3)ccnc2cc1OCC[C@H](N)C(=O)O` [Example 23, (S)-2-Amino-4-[6-methoxy-4-(1-phenylcarbamoylmethyl-1H-pyrazol-4-ylamino)-quinolin-7-yloxy]-butyric acid], for which the pIC50 in test [1] was less than 5.30.

For `COc1cc2nccc(Oc3ccc(NC(=O)c4ccccc4)cc3)c2cc1OCC[C@H](N)C(=O)OC1CCCC1` [Example 35, (S)-2-Amino-4-[4-(4-benzoylamino-phenoxy)-7-methoxy-quinolin-6-yloxy]-butyric acid cyclopentyl ester], the pIC50 in test [2] is 5.30 to 6.00; in test [3], 5.30 to 6.00; in test [4], greater than 6.00; in test [1], less than 5.30.

For `COc1cc2c(Oc3ccc(NC(=O)c4ccccc4)cc3)ccnc2cc1OCC[C@H](NC(C)=O)C(=O)OC1CCCC1` [Example 42, (S)-2-Acetylamino-4-[4-(4-benzoylamino-phenoxy)-6-methoxy-quinolin-7-yloxy]-butyric acid cyclopentyl ester], the pIC50 was greater than 6.00 in test [2], greater than 6.00 in test [3], greater than 6.00 in test [4] and 5.30 to 5.70 in test [1].

As to `COc1cc2c(Oc3ccc(NC(=O)c4cccc(F)c4)cc3)ccnc2cc1OCC[C@H](N)C(=O)O` [Example 56, (S)-2-Amino-4-{4-[4-(3-fluoro-benzoylamino)-phenoxy]-6-methoxy-quinolin-7-yloxy}-butyric acid], the pIC50 in test [1] was greater than 5.70.

Turning to `COc1cc2c(Oc3ccc(NC(=O)c4ccc(OC(F)(F)F)cc4)cc3)ccnc2cc1OCC[C@H](N)C(=O)O` [Example 71, (S)-2-Amino-4-{6-methoxy-4-[4-(4-trifluoromethoxy-benzoylamino)-phenoxy]-quinolin-7-yloxy}-butyric acid], the pIC50 in test [1] was 5.30 to 5.70.

For the compound `COc1cc2c(Oc3ccc(NS(=O)(=O)c4ccccc4)cc3)ccnc2cc1OCC[C@H](N)C(=O)O` [Example 74, (S)-2-Amino-4-[4-(4-benzenesulfonylamino-phenoxy)-6-methoxy-quinolin-7-yloxy]-butyric acid], the pIC50 in test [1] was 5.30 to 5.70.

`COc1cc2c(Oc3ccc(-c4noc(-c5ccccc5)n4)cc3)ccnc2cc1OCC[C@@H](N)C(=O)OC1CCCC1` [Example 107, (R)-2-Amino-4-{6-methoxy-4-[4-(5-phenyl-[1,2,4]oxadiazol-3-yl)-phenoxy]-quinolin-7-yloxy}-butyric acid cyclopentyl ester]: the pIC50 in test [2], in test [3] and in test [4] was less than 5.30 in each case.

Consider `COc1cc2c(Oc3ccc(NC(=O)Nc4ccc(C(F)(F)F)cc4)cc3F)ccnc2cc1OCC[C@@H](N)C(=O)OC1CCCC1` [Example 108, (R)-2-Amino-4-(4-{2-fluoro-4-[3-(4-trifluoromethyl-phenyl)-ureido]-phenoxy}-6-methoxy-quinolin-7-yloxy)-butyric acid cyclopentyl ester], for which the pIC50 in test [2], in test [3] and in test [4] was greater than 6.00 each time.

With `COc1cc2c(Oc3ccc(NC(=O)Nc4ccc(C(F)(F)F)cc4)cc3)ccnc2cc1OCCC[C@H](N)C(=O)OC1CCCC1` [Example 113, (S)-2-Amino-5-(6-methoxy-4-{4-[3-(4-trifluoromethyl-phenyl)-ureido]-phenoxy}-quinolin-7-yloxy)-pentanoic acid cyclopentyl ester], the pIC50 in test [2], in test [3] and in test [4] was greater than 6.00 in each case.

For the compound `COc1cc2c(Sc3ccc(NC(=O)Nc4ccc(C(F)(F)F)cc4)cc3)ccnc2cc1OCCC[C@@H](N)C(=O)OC1CCCC1` [Example 121, (R)-2-Amino-5-(6-methoxy-4-{4-[3-(4-trifluoromethyl-phenyl)-ureido]-phenylsulfanyl}-quinolin-7-yloxy)-pentanoic acid cyclopentyl ester], the pIC50 in test [2], in test [3] and in test [4] was greater than 6.00 in each case.

For `COc1cc2c(Oc3ccc(NC(=O)Nc4ccc(C(F)(F)F)cc4)cc3F)ccnc2cc1OCCC[C@@H](N)C(=O)OC1CCCC1` [Example 123, (R)-2-Amino-5-(4-{2-fluoro-4-[3-(4-trifluoromethyl-phenyl)-ureido]-phenoxy}-6-methoxy-quinolin-7-yloxy)-pentanoic acid cyclopentyl ester], the pIC50 in test [2], in test [3] and in test [4] was greater than 6.00 each time.

For the compound `COc1cc2c(Oc3ccc(NC(=O)c4ccc(C(F)(F)F)cc4)cc3F)ccnc2cc1OCC[C@H](N)C(=O)OC1CCCC1` [Example 127, (S)-2-Amino-4-{4-[2-fluoro-4-(4-trifluoromethyl-benzoylamino)-phenoxy]-6-methoxy-quinolin-7-yloxy}-butyric acid cyclopentyl ester], the pIC50 in test [2], in test [3] and in test [4] was greater than 6.00 throughout.

Regarding `COc1cc2c(Oc3ccc(NC(=O)c4ccccc4)c(F)c3)ccnc2cc1OCC[C@H](N)C(=O)OC1CCCC1` [Example 130, (S)-2-Amino-4-[4-(4-benzoylamino-3-fluoro-phenoxy)-6-methoxy-quinolin-7-yloxy]-butyric acid cyclopentyl ester], the pIC50 in test [2], in test [3] and in test [4] was greater than 6.00 each time.

For the compound `COc1cc2c(Oc3ccc(NC(=O)c4ccccc4)cc3OC)ccnc2cc1OCC[C@H](N)C(=O)OC1CCCC1` [Example 132, (S)-2-Amino-4-[4-(4-benzoylamino-2-methoxy-phenoxy)-6-methoxy-quinolin-7-yloxy]-butyric acid cyclopentyl ester], the results for the pIC50 in test [2], in test [3] and in test [4] were 5.30 to 6.00, 5.30 to 6.00 and greater than 6.00, respectively.

Turning to `COc1cc2c(Oc3ccc(NC(=O)c4ccccc4)cn3)ccnc2cc1OCC[C@H](N)C(=O)OC1CCCC1` [Example 134], the pIC50 in test [2], in test [3] and in test [4] was greater than 6.00 throughout.

On to `COc1cc2c(Oc3ccc(NC(=O)c4ccccc4)cc3)ccnc2cc1OC[C@@H]1CCCN1CC[C@H](N)C(=O)OC1CCCC1` [Example 135, (S)-2-Amino-4-{(S)-2-[4-(4-benzoylamino-phenoxy)-6-methoxy-quinolin-7-yloxymethyl]-pyrrolidin-1-yl}-butyric acid cyclopentyl ester], for which the values for the pIC50 in test [2], in test [3] and in test [4] were 5.30 to 6.00, 5.30 to 6.00 and greater than 6.00, respectively.

For the compound `COc1cc2c(Oc3ccc(NC(=O)c4ccccc4)cc3)ccnc2cc1OCC1CCN(CC[C@H](N)C(=O)OC2CCCC2)CC1` [Example 136, (S)-2-Amino-4-{4-[4-(4-benzoylamino-phenoxy)-6-methoxy-quinolin-7-yloxymethyl]-piperidin-1-yl}-butyric acid cyclopentyl ester], the pIC50 in test [2], in test [3] and in test [4] was greater than 6.00 each time.

For `COc1cc2c(Oc3ccc(NC(=O)c4ccccc4)cc3)ccnc2cc1OC1CCN(CC[C@H](N)C(=O)OC2CCCC2)C1` (stereo partly drawn) [Example 137, (S)-2-Amino-4-{3-[4-(4-benzoylamino-phenoxy)-6-methoxy-quinolin-7-yloxy]-pyrrolidin-1-yl}-butyric acid cyclopentyl ester], the figures for the pIC50 in test [2], in test [3] and in test [4] were greater than 6.00, 5.30 to 6.00 and greater than 6.00, respectively.

Take `COc1cc2c(Oc3ccc(NCc4ccccc4)cc3)ccnc2cc1OCC[C@H](N)C(=O)OC1CCCC1` [Example 138, (S)-2-Amino-4-[4-(4-benzylamino-phenoxy)-6-methoxy-quinolin-7-yloxy]-butyric acid cyclopentyl ester]: the pIC50 is greater than 6.00 in test [2], 5.30 to 6.00 in test [3] and greater than 6.00 in test [4].

As to `COc1cc2c(Oc3ccc(CC(=O)c4ccccc4)cc3)ccnc2cc1OCC[C@H](N)C(=O)OC1CCCC1` [Example 140, (S)-2-Amino-4-{6-methoxy-4-[4-(2-oxo-2-phenyl-ethyl)-phenoxy]-quinolin-7-yloxy}-butyric acid cyclopentyl ester], the pIC50 in test [2] is greater than 6.00; in test [3], 5.30 to 6.00; in test [4], greater than 6.00.

On to `COc1cc2c(Oc3ccc(CNC(=O)c4ccccc4)cc3)ccnc2cc1OCC[C@H](N)C(=O)OC1CCCC1` [Example 141, (S)-2-Amino-4-{4-[4-(benzoylamino-methyl)-phenoxy]-6-methoxy-quinolin-7-yloxy}-butyric acid cyclopentyl ester], for which the pIC50 in test [2], in test [3] and in test [4] was greater than 6.00 throughout.

With `COc1cc2c(Nc3cc(C)[nH]n3)nc(Sc3ccccc3)nc2cc1OCC[C@H](N)C(=O)OC1CCCC1` [Example 143, (S)-2-Amino-4-[6-methoxy-4-(5-methyl-1H-pyrazol-3-ylamino)-2-phenylsulfanyl-quinazolin-7-yloxy]-butyric acid cyclopentyl ester], the values for the pIC50 in test [2], in test [3] and in test [4] were 5.30 to 6.00, less than 5.30 and 5.30 to 6.00, respectively.

(Values after patent publication US8148531B2 (Chroma Therapeutics Ltd., priority 2005, dated 2012).)
